Holding throughout (experiment): inhibition of tumour cell growth, NCI panel, 48 h
In assay [1] the test system is KM12 colon.
The test system of assay [2] is SNB-75 CNS.
Assay [3] deals with NCI-H23 lung.
Assay [4] concerns K-562 leukemia.
For assay [5], the system named is SF-268 CNS.
Assay [6] deals with LOX IMVI melanoma.
Assay [7] concerns OVCAR-4 ovarian.
For assay [8], the system named is NCI/ADR-RES ovarian.
The subject of assay [9] is SK-OV-3 ovarian.
In assay [10] the test system is T-47D breast.

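48-hour exposure; five concentrations; linearly interpolated endpoints. Here, GI50 denotes the concentration required for 50% inhibition of growth. TGI is the concentration that stops growth completely.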

Turning to `C[C@]12Cc3cnc(-c4ccccc4)nc3C[C@@H]1CC[C@@H]1[C@@H]2CC[C@@]2(C)[C@H]1CC[C@]2(C)O`, the TGI in assay [1] was > 67.8 µM; in assay [2] it was 21.6 µM; in assay [3], 47.3 µM; in assay [4], 29.4 µM; in [5], 33 µM; in assay [6], 31.3 µM. Moreover, the TGI in [7] is 66.7 µM; in assay [8] it was 57 µM; in assay [9], 50 µM; in [10], 39.7 µM.
Take `O=C1CCCC/C1=C1/SC(=Nc2ccccc2)C(=Nc2ccccc2)N1c1ccccc1`: the TGI in assay [1], in [2], in assay [3], in assay [4], in assay [8] and in assay [9] was > 100 µM throughout. Besides, in assay [10], the TGI was > 100 µM.
`O=NN1C(c2ccccc2)C2CCCC(C2=O)C1c1ccccc1` (centres undefined): the TGI was 99.2 µM in [1]; 61 µM in [2]; 48.3 µM in assay [3]; 55.3 µM in assay [4]; > 100 µM in assay [5]; 54.9 µM in [6]. For the same compound, the values for the TGI in [7], in assay [8] and in [9] were 66.3 µM, > 89.6 µM and 73.6 µM, respectively.
As to `O=C(O)C(O)(c1ccc(-c2ccccc2)cc1)c1ccc(-c2ccccc2)cc1`, the TGI in assay [1] is 40.9 µM; in assay [2], 48.2 µM; in assay [3], 36.2 µM; in assay [4], > 100 µM; in [5], 57.8 µM; in [6], 31.8 µM. Also, the TGI is > 100 µM in assay [7], 61.2 µM in assay [8] and > 100 µM in assay [10].
As for `COC1CC(OC2CCC3(C)C(=CCC4C3C(OC(C)=O)C(OC(=O)CC(C)C)C3(C)C(C(C)=O)CCC43O)C2)OC(C)C1OC1CC(OC)C(OC2CC(OC)C(OC3OC(C)C(O)C(OC)C3O)C(C)O2)C(C)O1` (centres undefined), the TGI in assay [1] is > 100 µM; in assay [2], 70 µM; in assay [3], > 100 µM; in assay [4], > 100 µM; in assay [5] it was > 100 µM; in assay [6], 43.5 µM. In addition, the TGI in assay [7], in assay [9] and in assay [10] was > 100 µM throughout.
For the compound `COc1ccc(NC(=S)NNC(=O)c2nsc3ccccc23)cc1`, the TGI was > 100 µM in assay [1]; 66.8 µM in [2]; > 100 µM in assay [3]; > 100 µM in assay [4]; > 100 µM in assay [5]; > 100 µM in [6]. Also, in assay [7], the TGI was > 100 µM.
Turning to `COc1ccc(C(=O)NC2=C(Cl)C(=O)c3ccccc3C2=O)cc1`, the TGI in [1] is 12.2 µM; in [2], 12.8 µM; in assay [3], 6.05 µM; in assay [4] it was > 100 µM; in [5], 35.6 µM; in assay [6] it was 6.66 µM. The TGI in [7] was 7.72 µM; in assay [8], 9.05 µM; in assay [9] it was 9.85 µM; in assay [10], 3.83 µM.
Take `Clc1ccc(C2CC(c3cccc(Nc4ccncc4)c3)=NN2c2ccc(Cl)cc2)cc1` (centres undefined): the GI50 in assay [2] was 1210 nM; in assay [3], 1830 nM; in assay [7], 1660 nM; in [9], 1770 nM. Moreover, the TGI in assay [2] worked out at 2.56 µM; in [3], 3.49 µM; in assay [7], 3.08 µM; in assay [9] it was 3.41 µM.
Consider `Nc1c(OCC(=O)O)ccc2cc(S(=O)(=O)O)ccc12`, for which the TGI in assay [1], in assay [2], in assay [3], in assay [4], in [5] and in assay [6] was > 100 µM in each case. The TGI in assay [7], in assay [8], in [9] and in assay [10] was > 100 µM in each case.
Turning to `Clc1cc2ccccc2c2ccccc12`, the TGI in assay [1], in [2], in assay [3], in assay [4], in assay [5] and in assay [6] was > 100 µM each time. Moreover, the TGI in [7], in assay [8] and in assay [10] was > 100 µM each time.
Take `c1ccc2c(c1)OCCc1cn[nH]c1-2`: the TGI in assay [1] was > 100 µM; in assay [2] it was > 92.5 µM; in assay [3], > 100 µM; in assay [4], > 100 µM; in [5], > 100 µM; in assay [6], > 100 µM. The TGI in assay [7], in assay [8] and in assay [9] was > 100 µM in each case.
`CCOC(=O)c1nc2ccccc2n(CC)c1=O`: the TGI in assay [1], in [3], in [4], in [5], in assay [6] and in [7] was > 100 µM each time. Also, the TGI in assay [8], in assay [9] and in assay [10] was > 100 µM throughout.
Take `CC[C@@]1(OC(=O)CN(C)C)C(=O)OCc2c1cc1n(c2=O)Cc2cc3c(N)cccc3nc2-1`: the GI50 is 102 nM in assay [1]; 42.8 nM in assay [2]; 27.7 nM in [3]; 45.5 nM in assay [4]; < 10 nM in assay [5]; 14 nM in assay [6]. Besides, the GI50 in assay [7] was 625 nM; in assay [8], 34 nM; in assay [9] it was 40.2 nM; in assay [10], 25.3 nM. For the same compound, the TGI in assay [1] is 0.342 µM; in assay [2] it was 0.283 µM; in [3], 0.684 µM; in assay [4] it was > 100 µM; in assay [5], 0.11 µM; in assay [6], 0.162 µM. In addition, the TGI in [7] worked out at 14.6 µM; in assay [8], 2.41 µM; in assay [9] it was 0.884 µM; in assay [10] it was 0.868 µM.
Take `OC(c1ccc(Cl)cc1)(c1ccc(Cl)cc1)c1cncnc1`: the TGI in assay [1] was 31.9 µM; in assay [2] it was 52.7 µM; in [3] it was 61.6 µM; in assay [4], 69.8 µM; in assay [6], > 100 µM; in assay [7], 41.5 µM. The TGI in assay [8] is 74.8 µM; in assay [10], > 100 µM.
Consider `CN(C)CCCNc1ccc2nnn3c4ccc(OC(=O)c5ccccc5)cc4c(=O)c1c23`, for which the TGI in assay [1] is 23.3 µM; in assay [3], 32.2 µM; in [4], 4.49 µM; in assay [5] it was 25.6 µM; in assay [6], 15.2 µM; in [7] it was 11.7 µM. For the same compound, the TGI in assay [8] worked out at 37.9 µM; in [9], 42.9 µM; in [10], 37.5 µM.
With `CN(CCO)Cc1ncccc1O`, the TGI in [1], in assay [2], in assay [3], in [4], in assay [5] and in assay [6] was > 100 µM each time. The TGI in assay [7], in assay [8], in [9] and in [10] was > 100 µM each time.
On to `COc1cc2c(cc1OC)C1c3ccccc3CCN1CCC2` (centres undefined), for which the TGI in assay [1], in assay [2], in [4], in assay [5], in assay [6] and in assay [8] was > 100 µM in each case. Moreover, the TGI in assay [9] and in [10] was > 100 µM in each case.
`NC1C=NNC1=O` (centres undefined): the TGI in [1], in assay [2], in [3], in assay [4], in [5] and in assay [6] was > 100 µM throughout. The TGI in [7] and in assay [9] was > 100 µM throughout.

The values are drawn from PubChem BioAssay (NCI).
